# Reference: US6706663B2, “Herbicidal 3-heterocyclic substituted benzisothiazole and benzisoxazole compounds” (Wyeth, priority 2000, dated 2004)
# Legend:
# [1] = tested on: AMBEL (Ambrosia artemisifolia); assay: Preemergence herbicidal evaluation; type: in vivo, L.; details: rated 4-5 weeks after treatment
# Method in brief: (§1)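 Visual 0-9 rating versus untreated control, taken four to five weeks post-treatment, scoring stand, vigor, malformation, size, chlorosis and overall appearance. Compound applied as aqueous acetone spray to freshly seeded soil cups, then kept under standard greenhouse care.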
# [2] = tested on: CASOB (Cassia obtusifolia); assay: Preemergence herbicidal evaluation; type: in vivo, L.; details: rated 4-5 weeks after treatment
# Method in brief: as §1
# [3] = tested on: CHEAL (Chenopodium album); assay: Preemergence herbicidal evaluation; type: in vivo, L.; details: rated 4-5 weeks after treatment
# Method in brief: as §1
# [4] = tested on: SAGPY (Sagittaria pygmaea); assay: Flooded paddy, preemergence weed control; type: in vivo, L.; details: rated 3-4 weeks after treatment, 0-9 rating scale
# Method in brief: (§2)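 Ratings of 0-9 reflect visual comparison with a control for stand, vigor, deformity, size, chlorosis and overall look. Propagules were placed in shallow silt loam (top 0.5 cm) under a continuous 1.5–3 cm flood and grown in the greenhouse.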
# [5] = tested on: CYPSE (Cyperus serotinus); assay: Flooded paddy, preemergence weed control; type: in vivo, Rottb.; details: rated 3-4 weeks after treatment, 0-9 rating scale
# Method in brief: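 Herbicidal effect was scored visually on a 0–9 scale against an untreated control 3–4 weeks after treatment. Compounds were applied preemergence as 50/50 v/v aqueous/acetone mixtures into flood water (1.5–3 cm deep over silt loam), at roughly 0.0080 to 0.1250 kg/ha active ingredient.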
# SETVI (Setaria viridis) [6] = assay: Postemergence herbicidal evaluation; type: in vivo, (L.) Beau; details: postemergence
# Method in brief: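 Seedlings grown about two weeks were sprayed with compound in 50/50 acetone/water containing 0.5% TWEEN 20, at about 0.0040 to 1.000 kg/ha via nozzle at 40 psi. Plants were kept under greenhouse conditions and visually rated on a 0-9 scale versus control four to five weeks after treatment; replicate tests averaged.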
# [7] = tested on: MOOVA (Monochoria vaginalis); assay: Flooded paddy, preemergence weed control; type: in vivo, Presl.; details: rated 3-4 weeks after treatment, 0-9 rating scale
# Method in brief: as §2
# [8] = tested on: IPOHE (Ipomoea hederacea); assay: Postemergence herbicidal evaluation; type: in vivo, (L.) Jacq.; details: postemergence
# Method in brief: (§3)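 Visual 0–9 injury scores versus control plants, covering stand, vigour, malformation, size, chlorosis and general appearance, taken four to five weeks post-spray and averaged over replicate tests. Plants were sprayed at roughly two weeks old and held on greenhouse benches.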
# [9] = tested on: ECHCG (Echinochloa crus-galli); assay: Preemergence herbicidal evaluation; type: in vivo, (L.) Beau; details: rated 4-5 weeks after treatment
# Method in brief: as §1
# SETVI (Setaria viridis) [10] = assay: Preemergence herbicidal evaluation; type: in vivo, (L.) Beau; details: rated 4-5 weeks after treatment
# Method in brief: as §1
# [11] = tested on: AMBEL (Ambrosia artemisifolia); assay: Postemergence herbicidal evaluation; type: in vivo, L.; details: postemergence
# Method in brief: as §3
# [12] = tested on: CASOB (Cassia obtusifolia); assay: Postemergence herbicidal evaluation; type: in vivo, L.; details: postemergence
# Method in brief: as §3
# [13] = tested on: CHEAL (Chenopodium album); assay: Postemergence herbicidal evaluation; type: in vivo, L.; details: postemergence
# Method in brief: as §3
# GALAP (Galium aparine) = assay: Postemergence herbicidal evaluation; type: in vivo; details: postemergence
# Method in brief: as §3
# ORYSAT (Rice, Tebonnet) [14] = assay: Preemergence herbicidal evaluation; type: in vivo, Oryza sativa, (L.) Tebonnet; details: rated 4-5 weeks after treatment
# [15] = tested on: ABUTH (Abutilon theophrasti); assay: Postemergence herbicidal evaluation; type: in vivo, Medic.; details: postemergence
# Method in brief: as §3
# CYPIR (Cyperus iria) = assay: Flooded paddy, preemergence weed control; type: in vivo; details: rated 3-4 weeks after treatment, 0-9 rating scale
# Method in brief: as §2
# [16] = tested on: TRZAWR (Wheat, Winter, cv Riband); assay: Postemergence herbicidal evaluation; type: in vivo, Triticum aestivum; details: postemergence
# Method in brief: as §3
# ORYSAT (Rice, Tebonnet) [17] = assay: Postemergence herbicidal evaluation; type: in vivo, Oryza sativa, (L.) Tebonnet; details: postemergence
# Method in brief: as §3
smiles,measurement,setting,value
"CC1CC(C)(C)OC(c2nsc3ccc(-n4c(=O)cc(C(F)(F)F)n(C)c4=O)cc23)O1 (stereo not shown) [Compound 55, 1-methyl-6-(trifluoromethyl)-3-[3-(4,4,6-trimethyl-m-dioxan-2-yl)-1,2-benzisothiazol-5-yl]uracil]",Preemergence herbicidal rating AMBEL,[1]; Rate 0.0620 kg/ha,9.0
same,Preemergence herbicidal rating AMBEL,[1]; Rate 0.1250 kg/ha,9.0
same,Preemergence herbicidal rating AMBEL,[1]; Rate 0.2500 kg/ha,9.0
same,Preemergence herbicidal rating CASOB,[2]; Rate 0.0620 kg/ha,3.5
same,Preemergence herbicidal rating CASOB,[2]; Rate 0.1250 kg/ha,7.5
same,Preemergence herbicidal rating CASOB,[2]; Rate 0.2500 kg/ha,7.0
same,Preemergence herbicidal rating CHEAL,[3]; Rate 0.0620 kg/ha,9.0
same,Preemergence herbicidal rating CHEAL,[3]; Rate 0.1250 kg/ha,9.0
same,Preemergence herbicidal rating CHEAL,[3]; Rate 0.2500 kg/ha,9.0
same,"herbicidal rating, SAGPY",[4]; rate 0.0080 kg/ha,0.0
same,"herbicidal rating, SAGPY",[4]; rate 0.0320 kg/ha,0.0
same,"herbicidal rating, SAGPY",[4]; rate 0.1250 kg/ha,7.0
same,"herbicidal rating, CYPSE",[5]; rate 0.0320 kg/ha,9.0
same,"herbicidal rating, CYPSE",[5]; rate 0.1250 kg/ha,9.0
same,SETVI herbicidal rating,SETVI (Setaria viridis) [6]; rate 0.0320 kg/ha,1.0
same,SETVI herbicidal rating,SETVI (Setaria viridis) [6]; rate 0.0620 kg/ha,1.0
same,"herbicidal rating, MOOVA",[7]; rate 0.0320 kg/ha,9.0
same,"herbicidal rating, MOOVA",[7]; rate 0.1250 kg/ha,9.0
same,IPOHE herbicidal rating,[8]; rate 0.0320 kg/ha,9.0
same,IPOHE herbicidal rating,[8]; rate 0.0620 kg/ha,9.0
same,Preemergence herbicidal rating ECHCG,[9]; Rate 0.0620 kg/ha,9.0
same,Preemergence herbicidal rating ECHCG,[9]; Rate 0.1250 kg/ha,9.0
same,Preemergence herbicidal rating ECHCG,[9]; Rate 0.2500 kg/ha,9.0
same,Preemergence herbicidal rating SETVI,SETVI (Setaria viridis) [10]; Rate 0.0620 kg/ha,9.0
same,Preemergence herbicidal rating SETVI,SETVI (Setaria viridis) [10]; Rate 0.1250 kg/ha,9.0
same,Preemergence herbicidal rating SETVI,SETVI (Setaria viridis) [10]; Rate 0.2500 kg/ha,9.0
same,AMBEL herbicidal rating,[11]; rate 0.0320 kg/ha,9.0
same,AMBEL herbicidal rating,[11]; rate 0.0620 kg/ha,9.0
same,CASOB herbicidal rating,[12]; rate 0.0320 kg/ha,2.0
same,CASOB herbicidal rating,[12]; rate 0.0620 kg/ha,1.0
same,CHEAL herbicidal rating,[13]; rate 0.0320 kg/ha,5.0
same,CHEAL herbicidal rating,[13]; rate 0.0620 kg/ha,4.0
same,GALAP herbicidal rating,GALAP (Galium aparine); rate 0.0320 kg/ha,2.0
same,GALAP herbicidal rating,GALAP (Galium aparine); rate 0.0620 kg/ha,2.0
same,Preemergence herbicidal rating ORYSAT,"ORYSAT (Rice, Tebonnet) [14]; Rate 0.0620 kg/ha",7.5
same,Preemergence herbicidal rating ORYSAT,"ORYSAT (Rice, Tebonnet) [14]; Rate 0.1250 kg/ha",9.0
same,Preemergence herbicidal rating ORYSAT,"ORYSAT (Rice, Tebonnet) [14]; Rate 0.2500 kg/ha",9.0
same,ABUTH herbicidal rating,[15]; rate 0.0320 kg/ha,9.0
same,ABUTH herbicidal rating,[15]; rate 0.0620 kg/ha,9.0
same,"herbicidal rating, CYPIR",CYPIR (Cyperus iria); rate 0.0080 kg/ha,0.0
same,"herbicidal rating, CYPIR",CYPIR (Cyperus iria); rate 0.0320 kg/ha,6.0
same,"herbicidal rating, CYPIR",CYPIR (Cyperus iria); rate 0.1250 kg/ha,9.0
same,TRZAWR herbicidal rating,[16]; rate 0.0320 kg/ha,3.0
same,TRZAWR herbicidal rating,[16]; rate 0.0620 kg/ha,5.0
same,ORYSAT herbicidal rating,"ORYSAT (Rice, Tebonnet) [17]; rate 0.0320 kg/ha",3.0
same,ORYSAT herbicidal rating,"ORYSAT (Rice, Tebonnet) [17]; rate 0.0620 kg/ha",4.5
"Cn1c(C(F)(F)F)cc(=O)n(-c2ccc3snc(C4OC(C)(C)C(C)(C)O4)c3c2)c1=O [Compound 56, 1-methyl-3-[3-(4,4,5,5-tetramethyl-1,3-dioxolan-2-yl)-1,2-benzisothiazol-5-yl]-6-(trifluoromethyl)uracil]",Preemergence herbicidal rating AMBEL,[1]; Rate 0.0620 kg/ha,9.0
same,Preemergence herbicidal rating AMBEL,[1]; Rate 0.1250 kg/ha,9.0
same,Preemergence herbicidal rating AMBEL,[1]; Rate 0.2500 kg/ha,9.0
same,Preemergence herbicidal rating CASOB,[2]; Rate 0.0620 kg/ha,4.5
same,Preemergence herbicidal rating CASOB,[2]; Rate 0.1250 kg/ha,5.5
same,Preemergence herbicidal rating CASOB,[2]; Rate 0.2500 kg/ha,9.0
same,Preemergence herbicidal rating CHEAL,[3]; Rate 0.0620 kg/ha,9.0
same,Preemergence herbicidal rating CHEAL,[3]; Rate 0.1250 kg/ha,9.0
same,Preemergence herbicidal rating CHEAL,[3]; Rate 0.2500 kg/ha,9.0
same,"herbicidal rating, SAGPY",[4]; rate 0.0080 kg/ha,0.0
same,"herbicidal rating, SAGPY",[4]; rate 0.0320 kg/ha,0.0
same,"herbicidal rating, SAGPY",[4]; rate 0.1250 kg/ha,6.3
same,"herbicidal rating, CYPSE",[5]; rate 0.0080 kg/ha,0.0
same,"herbicidal rating, CYPSE",[5]; rate 0.0320 kg/ha,5.5
same,"herbicidal rating, CYPSE",[5]; rate 0.1250 kg/ha,9.0
same,SETVI herbicidal rating,SETVI (Setaria viridis) [6]; rate 0.0320 kg/ha,2.0
same,SETVI herbicidal rating,SETVI (Setaria viridis) [6]; rate 0.0620 kg/ha,4.0
same,"herbicidal rating, MOOVA",[7]; rate 0.0080 kg/ha,9.0
same,"herbicidal rating, MOOVA",[7]; rate 0.0320 kg/ha,9.0
same,"herbicidal rating, MOOVA",[7]; rate 0.1250 kg/ha,9.0
same,IPOHE herbicidal rating,[8]; rate 0.0320 kg/ha,9.0
same,IPOHE herbicidal rating,[8]; rate 0.0620 kg/ha,9.0
same,Preemergence herbicidal rating ECHCG,[9]; Rate 0.0620 kg/ha,9.0
same,Preemergence herbicidal rating ECHCG,[9]; Rate 0.1250 kg/ha,9.0
same,Preemergence herbicidal rating ECHCG,[9]; Rate 0.2500 kg/ha,9.0
same,Preemergence herbicidal rating SETVI,SETVI (Setaria viridis) [10]; Rate 0.0620 kg/ha,8.5
same,Preemergence herbicidal rating SETVI,SETVI (Setaria viridis) [10]; Rate 0.1250 kg/ha,9.0
same,Preemergence herbicidal rating SETVI,SETVI (Setaria viridis) [10]; Rate 0.2500 kg/ha,9.0
same,AMBEL herbicidal rating,[11]; rate 0.0320 kg/ha,9.0
same,AMBEL herbicidal rating,[11]; rate 0.0620 kg/ha,9.0
same,CASOB herbicidal rating,[12]; rate 0.0320 kg/ha,3.0
same,CASOB herbicidal rating,[12]; rate 0.0620 kg/ha,7.0
same,CHEAL herbicidal rating,[13]; rate 0.0320 kg/ha,7.0
same,CHEAL herbicidal rating,[13]; rate 0.0620 kg/ha,9.0
same,GALAP herbicidal rating,GALAP (Galium aparine); rate 0.0320 kg/ha,3.0
same,GALAP herbicidal rating,GALAP (Galium aparine); rate 0.0620 kg/ha,3.0
same,Preemergence herbicidal rating ORYSAT,"ORYSAT (Rice, Tebonnet) [14]; Rate 0.0620 kg/ha",5.0
same,Preemergence herbicidal rating ORYSAT,"ORYSAT (Rice, Tebonnet) [14]; Rate 0.1250 kg/ha",6.0
same,Preemergence herbicidal rating ORYSAT,"ORYSAT (Rice, Tebonnet) [14]; Rate 0.2500 kg/ha",6.0
same,ABUTH herbicidal rating,[15]; rate 0.0320 kg/ha,9.0
same,ABUTH herbicidal rating,[15]; rate 0.0620 kg/ha,9.0
same,"herbicidal rating, CYPIR",CYPIR (Cyperus iria); rate 0.0080 kg/ha,6.0
same,"herbicidal rating, CYPIR",CYPIR (Cyperus iria); rate 0.0320 kg/ha,8.0
same,"herbicidal rating, CYPIR",CYPIR (Cyperus iria); rate 0.1250 kg/ha,9.0
same,TRZAWR herbicidal rating,[16]; rate 0.0320 kg/ha,3.5
same,TRZAWR herbicidal rating,[16]; rate 0.0620 kg/ha,4.5
same,ORYSAT herbicidal rating,"ORYSAT (Rice, Tebonnet) [17]; rate 0.0320 kg/ha",3.5
same,ORYSAT herbicidal rating,"ORYSAT (Rice, Tebonnet) [17]; rate 0.0620 kg/ha",4.5
